Measurements taken from the supplement of paper PMC5908809.

What was measured:
[1] = system: normal NK cells expanded with K562-aAPC; assay: percent inhibition of viability; higher = more inhibition; details: 72 h, IL-2 2.5 ng/mL
Procedure: (§1)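 Drug sensitivity and resistance testing on K562-aAPC-expanded normal NK cells: 5 concentrations (10-fold steps over a 10,000-fold range), 72 h at 37 °C, viability by CellTiter-Glo normalised to DMSO and benzethonium chloride controls; DSS from the fitted curve.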

[2] = system: DERL-7 (IL-2 2.5 ng/mL); assay: as above; details: 72 h
[3] = system: IMC-1 (IL-2 20 ng/mL); assay: as above; details: 72 h
[4] = system: KAI3 (IL-2 2.5 ng/mL); assay: as above; details: 72 h
[5] = system: KHYG-1 (IL-2 2.5 ng/mL); assay: as above; details: 72 h
[6] = system: NK-92 (IL-2 2.5 ng/mL); assay: as above; details: 72 h
[7] = system: NK-YS (IL-2 2.5 ng/mL); assay: as above; details: 72 h
[8] = system: NKL (IL-2 2.5 ng/mL); assay: as above; details: 72 h
[9] = system: SNK-6 (IL-2 2.5 ng/mL); assay: as above; details: 72 h
[10] = system: YT (IL-2 2.5 ng/mL); assay: as above; details: 72 h
[11] = system: normal primary NK cells, pool 1 (3 donors) (IL-2 2.5 ng/mL); assay: as above; details: 72 h
[12] = system: normal primary NK cells, pool 1 (3 donors), resting (IL-2 0 ng/mL); assay: as above; details: 72 h
[13] = system: normal primary NK cells, pool 2 (3 donors) (IL-2 2.5 ng/mL); assay: as above; details: 72 h
[14] = system: normal primary NK cells, pool 3 (3 donors) (IL-2 2.5 ng/mL); assay: as above; details: 72 h
[15] = system: normal NK cells expanded with K562-aAPC; assay: drug sensitivity score (DSS) (DSS units); higher = more sensitive; extreme values may be limits of the assay; details: 72 h; IL-2 2.5 ng/mL
Procedure: as §1

[16] = system: DERL-7 (IL-2 2.5 ng/mL); assay: as above; details: 72 h
[17] = system: IMC-1 (IL-2 20 ng/mL); assay: as above; details: 72 h
[18] = system: KAI3 (IL-2 2.5 ng/mL); assay: as above; details: 72 h
[19] = system: KHYG-1 (IL-2 2.5 ng/mL); assay: as above; details: 72 h
[20] = system: NK-92 (IL-2 2.5 ng/mL); assay: as above; details: 72 h
[21] = system: NK-YS (IL-2 2.5 ng/mL); assay: as above; details: 72 h
[22] = system: NKL (IL-2 2.5 ng/mL); assay: as above; details: 72 h
[23] = system: SNK-6 (IL-2 2.5 ng/mL); assay: as above; details: 72 h
[24] = system: YT (IL-2 2.5 ng/mL); assay: as above; details: 72 h
[25] = system: normal primary NK cells, pool 1 (3 donors) (IL-2 2.5 ng/mL); assay: as above; details: 72 h
[26] = system: normal primary NK cells, pool 1 (3 donors), resting (IL-2 0 ng/mL); assay: as above; details: 72 h
[27] = system: normal primary NK cells, pool 2 (3 donors) (IL-2 2.5 ng/mL); assay: as above; details: 72 h
[28] = system: normal primary NK cells, pool 3 (3 donors) (IL-2 2.5 ng/mL); assay: as above; details: 72 h

CNc1nc(-c2ccc3c(N)n[nH]c3c2)cc(N2C[C@@H](C(=O)NC3CCCCC3)CC[C@H]2C)n1 (max concentration tested 10000 nM)
percent inhibition of viability [%]
Details | 1 nM | 10 nM | 100 nM | 1000 nM | 10000 nM
[1] | -0.16 | 0.82 | 7.33 | 29 | 34.4
[2] | -6.71 | 4.6 | 17.5 | 62.3 | 73.1
[3] | -3.83 | -6.62 | -4.53 | -20.3 | -19.2
[4] | 5.2 | 2.8 | 14.8 | 12.4 | 22.3
[5] | 2.18 | -0.82 | 1.06 | 6.54 | 6.11
[6] | -8.7 | -9.38 | -10.8 | 12.7 | 15.9
[7] | -0.39 | 1.82 | 1.37 | 11.8 | 12.3
[8] | -8.02 | -17.1 | -8.23 | 7.46 | 19
[9] | -15.1 | -5.82 | -4.32 | -18.6 | -16.6
[10] | 0.91 | -0.65 | -0.96 | -0.24 | -1.61
[11] | -8.1 | -7.19 | -3.29 | 25.5 | 14.9
[12] | -13.3 | -12.7 | -3.91 | 21.5 | 9.91
[13] | -9.37 | -17 | -3.8 | 12.4 | 20.9
[14] | -9.17 | -11.9 | -6.95 | 18.4 | 14.4

Details | drug sensitivity score
[15] | 5.66
[16] | 13.6
[17] | 0
[18] | 2.49
[19] | 0
[20] | 1.22
[21] | 0.64
[22] | 1.31
[23] | 0
[24] | 0
[25] | 3.79
[26] | 2.84
[27] | 1.91
[28] | 2.05

NC(=O)c1cccc2cn(-c3ccc([C@@H]4CCCNC4)cc3)nc12 [Niraparib] (max concentration tested 10000 nM)
percent inhibition of viability [%]
Details | 1 nM | 10 nM | 100 nM | 1000 nM | 10000 nM
[1] | 0.08 | 1.98 | 2.28 | 18.1 | 32.5
[2] | 0.54 | 3.15 | 0.76 | 8.32 | 68.3
[3] | -4.38 | 1.54 | 3.53 | 17.8 | 95.6
[4] | -1.88 | 8.15 | 4.77 | 19.1 | 78.8
[5] | -5.84 | 6.09 | -1.02 | 10.6 | 92.7
[6] | 4.26 | 12 | 8.71 | 15.1 | 92.8
[7] | -10.5 | -0.47 | -4.5 | 25.4 | 94.5
[8] | -9.92 | 5.83 | 22.1 | 72.4 | 82.9
[9] | -11.2 | -10.2 | 1.34 | 0.26 | 86.7
[10] | -0.31 | 5.58 | -0.5 | -2.07 | 34
[11] | 6.04 | -0.22 | -4.85 | -8.51 | -4.48
[12] | 1.46 | -12.9 | -7.56 | -30.2 | -19.6
[13] | -5.25 | -5.29 | 0.44 | -5.11 | 2.06
[14] | -3.37 | -7.45 | 1.14 | -2 | 0.09

Details | drug sensitivity score
[15] | 3.36
[16] | 5.15
[17] | 8.2
[18] | 7.35
[19] | 6.89
[20] | 7.65
[21] | 9.06
[22] | 16
[23] | 4.87
[24] | 1.42
[25] | 0
[26] | 0
[27] | 0
[28] | 0

COc1cc2nccc(Oc3ccc(NC(=O)NC4CC4)c(Cl)c3)c2cc1C(N)=O [Lenvatinib] (max concentration tested 2500 nM)
percent inhibition of viability [%]
Details | 0.25 nM | 2.5 nM | 25 nM | 250 nM | 2500 nM
[1] | -4.04 | -5.14 | -2.63 | 6.46 | 19.2
[2] | -0.62 | 1.25 | 2.95 | -3.62 | 5.92
[3] | -6.27 | -2.01 | -2.37 | 0.43 | 3.18
[4] | -5.44 | 0.76 | 3.58 | 15.2 | 41.1
[5] | -6.43 | -1.14 | -3.61 | 2.55 | 13.7
[6] | -9.84 | 0.14 | -0.46 | 17.2 | 37.8
[7] | -8.22 | -3.14 | -1.94 | 6.7 | 25.7
[8] | -6.25 | -5.72 | 2.51 | 23.8 | 33.6
[9] | -33.9 | -23.3 | -21.9 | -19.5 | -12.3
[10] | -8.36 | -6.83 | -3.92 | 0.74 | 22.8
[11] | -3.95 | 5.45 | 5.1 | 3.42 | 13.3
[12] | -5.39 | 10.9 | 5.68 | 1.5 | 8.67
[13] | -4.17 | -2.51 | -1.07 | -9.36 | -5.82
[14] | -0.41 | -2.47 | 2.78 | -8.95 | -1.48

Details | drug sensitivity score
[15] | 1.26
[16] | 0
[17] | 0
[18] | 3.76
[19] | 0.34
[20] | 4.08
[21] | 1.95
[22] | 4.35
[23] | 0.89
[24] | 0.88
[25] | 0.01
[26] | 0
[27] | 0.89
[28] | 0

CN(C[C@@H]1COCCO1)S(=O)(=O)Nc1ccc2ccc3ncc(-c4cnn(C)c4)cc3c(=O)c2c1 [MK-2461] (max concentration tested 10000 nM)
percent inhibition of viability [%]
Details | 1 nM | 10 nM | 100 nM | 1000 nM | 10000 nM
[1] | 2.16 | -3.15 | -5.97 | -1.83 | 29.5
[2] | -6.68 | -3.14 | -6.19 | 10.2 | 52.8
[3] | 1.71 | -0.63 | 3.27 | -5.3 | -50.1
[4] | -1.76 | -2.96 | 7.38 | 21.6 | 44.7
[5] | -0.18 | -3.51 | -0.87 | 6.75 | 44.4
[6] | 1.01 | -5.16 | -10.7 | 7.81 | 9.19
[7] | 0.46 | -3.34 | -0.08 | 3.95 | 33.3
[8] | -3.44 | -1.59 | -12 | 8.79 | 30
[9] | 0.33 | -7.16 | -3.05 | -24.8 | 19.4
[10] | -0.04 | -0.58 | -1.61 | 0.19 | 10.3
[11] | -3.44 | -9.95 | -8.02 | -7.44 | 21.8
[12] | -17.8 | -18.1 | -32.3 | -29.1 | 26.9
[13] | -7.85 | -3.63 | -2.59 | -2.71 | 16.6
[14] | -12.9 | -6.11 | -6.1 | -12.5 | -1.21

Details | drug sensitivity score
[15] | 1.13
[16] | 4.49
[17] | 0
[18] | 4.68
[19] | 3.41
[20] | 0
[21] | 2.18
[22] | 2.56
[23] | 0.21
[24] | 0
[25] | 0.46
[26] | 0.54
[27] | 0.24
[28] | 0

COc1cc2c(Oc3ccc(NC(=O)C4(C(=O)Nc5ccc(F)cc5)CC4)cc3F)ccnc2cc1OCCCN1CCOCC1 [Foretinib] (max concentration tested 1000 nM)
percent inhibition of viability [%]
Details | 0.1 nM | 1 nM | 10 nM | 100 nM | 1000 nM
[1] | -5.4 | -5.19 | -3.74 | 12.6 | 61
[2] | 3.24 | -0.68 | 2.22 | -8.07 | 70.8
[3] | -6.29 | -10.2 | -1.31 | 3.45 | 27.1
[4] | 3.99 | -0.1 | 0.67 | 11.6 | 31.7
[5] | 1.36 | -8.14 | -3.69 | 18.4 | 49.9
[6] | -17.3 | -12.3 | -5.79 | 19.9 | 34.9
[7] | -1.72 | -7.82 | -1.95 | 11.5 | 70.2
[8] | -12.1 | -16.5 | -5.45 | 16.3 | 49.9
[9] | -1.08 | -15.3 | -7.01 | -4.86 | 49.9
[10] | -1.93 | -8.62 | -2.43 | 13.9 | 37.3
[11] | 3.18 | -0.67 | 9.57 | 11.1 | 15.9
[12] | -4.45 | 1.67 | 17.2 | 10.1 | 18.4
[13] | -11.2 | -4.47 | 3.97 | -2.36 | -2.41
[14] | -8.78 | -7.33 | 8.91 | 6.17 | 10.7

Details | drug sensitivity score
[15] | 5.37
[16] | 3.35
[17] | 1.64
[18] | 2.98
[19] | 5.21
[20] | 4.04
[21] | 5.79
[22] | 5
[23] | 2.27
[24] | 3.73
[25] | 1.19
[26] | 4.1
[27] | 0
[28] | 0.32
